Key:
[1] = molecular target: T1, type 1 muscarinic receptor (M1R) (Homo sapiens, UniProt P11229); details: cited from earlier work
T1 sequence (P11229 1-460): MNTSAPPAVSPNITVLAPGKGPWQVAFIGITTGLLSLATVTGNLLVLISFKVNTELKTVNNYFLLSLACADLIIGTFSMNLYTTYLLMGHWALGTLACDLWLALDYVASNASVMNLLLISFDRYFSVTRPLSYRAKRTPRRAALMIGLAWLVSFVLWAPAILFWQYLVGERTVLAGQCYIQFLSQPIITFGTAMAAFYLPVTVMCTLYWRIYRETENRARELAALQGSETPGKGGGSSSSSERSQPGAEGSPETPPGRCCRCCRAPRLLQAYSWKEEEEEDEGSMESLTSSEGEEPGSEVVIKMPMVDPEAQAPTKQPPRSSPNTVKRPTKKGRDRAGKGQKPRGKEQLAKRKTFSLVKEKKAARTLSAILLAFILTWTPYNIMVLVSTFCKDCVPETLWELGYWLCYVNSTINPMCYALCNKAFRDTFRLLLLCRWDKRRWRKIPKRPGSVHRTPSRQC

[2] = tested on: adult sensory neuron cultures from STZ-induced diabetic rats; experiment: Mitochondrial respiration (OCR) in adult sensory neuron cultures; assay type: cell-based, rat; details: 1 μM for 3 h
Description: Mitochondrial respiration in adult mouse sensory neuron cultures from wild type control mice, M1 receptor knockout mice (M1R KO), and from diabetic mice that received dosing with 1 μM of VU0255035 for 3 h, were assessed following the methods taught by Roy Chowdhury et al. (2012). The M1R knockout mice were a gift from Dr. Jurgen Wess (Molecular Signaling Section, Laboratory of Bioorganic Chemistry, National Institute of Diabetes and Digestive and Kidney Diseases, National Institutes of Health).
This bioenergetics parameter, which is depressed in diabetes, is related to the capacity of cells to conduct respiration under conditions of stress or high ATP demand. In this regard we propose the stress is the presence of high intracellular glucose concentrations.

[3] = tested on: DCA-treated Swiss Webster mice; details: pirenzepine 10 mg/kg/day s.c.
Description: Swiss Webster mice were treated with DCA (1 mg/kg/day s.c.) for 8 weeks to induce peripheral neuropathy following the method described for rats by Calcutt et al. (2009, Peripheral neuropathy in rats exposed to dichloroacetate. J. Neuropath. Exp. Neurol. 68:985-93). Some DCA-treated mice were also treated with pirenzepine (Pz: 10 mg/kg/day s.c.) for the duration of the study while others were treated with vehicle alone.

[4] = tested on: adult sensory neuron cultures derived from STZ-induced diabetic rats; experiment: Neurite outgrowth in sensory neuron cultures transduced with dominant negative AMPK mutants; assay type: cell-based, rat; details: 1.0 μM pirenzepine; adenovirus dominant negative AMPK mutants AdDN1/AdDN2
Description: Adult sensory neuron cultures derived from STZ-induced diabetic rats were transduced for two days after treatment with 1.0 μM pirenzepine, with two adenovirus over-expressing dominant negative mutants of AMPK, i.e., AMPK subunit α1 and α2 mutants named “AdDN1” and “AdDN2” (the adenovirus over-expressing dominant negative mutants were gifts from Dr. Jason Dyck, University of Alberta) following the procedure taught by Roy Chowdhury et al., (2012).

[5] = tested on: PGC-1α; experiment: PGC-1α transcriptional activity, luciferase reporter in adult sensory neurons; assay type: cell-based, rat; details: 1 μM; neurons from STZ-induced diabetic rats
Description: PGC-1α transcriptional activity was determined in dissociated adult sensory neurons derived from STZ-induced diabetic rats by transfection for two days with luciferase-based reporter plasmids by following the methods taught in the AMAXA® NUCLEOFECTOR® II Manual (www.amaxa.com; AMAX and NUCLEOFECTOR are registered trademarks of Amaxa GmBH Corp., Koln, Fed. Rep. Germany) and by Saleh et al. (2013, Ciliary neurotrophic factor activates NF-κB to enhance mitochondrial bioenergetics and prevent neuropathy in sensory neurons of streptozotocin-induced diabetic rodents. Neuropharmacology 65:65-75) (the luciferase-based reporter plasmids were a gift from Dr. Michael Czubryt, University of Manitoba).

[6] = tested on: paclitaxel-treated Swiss Webster mice; assay type: in vivo, mouse; details: pirenzepine daily s.c. for 4 weeks (10 mg/kg/day, also printed 1 mg/kg/day)
Description: Swiss Webster mice were treated with paclitaxel (taxol; 5 mg/kg on days 1,3,5 and 7) to induce peripheral neuropathy. […] Data points are group mean of n=9-12/group±SEM. Significant differences were determined with a oneway ANOVA followed by Dunnett's post-hoc test.

[7] = tested on: STZ-induced diabetic rats; experiment: Motor and sensory nerve conduction velocity in STZ-induced diabetic rats; assay type: in vivo, rat; details: 5 mg/kg s.c., 8 weeks; p<0.05 vs vehicle-treated diabetic rats
Description: The STZ rat is a model of type 1 diabetes. Rats were treated with 5 mg/kg (s.c.) pirenzepine for 8 weeks following the method taught by Calcutt et al. (2003, Therapeutic efficacy of sonic hedgehog protein in experimental diabetic neuropathy. J. Clin. Invest. 111:507-514). Nerve conduction velocities (NCV) were determined following the methods taught by Mizisin et al. (2004, Ciliary Neurotrophic Factor Improves Nerve Conduction and Ameliorates Regeneration Deficits in Diabetic Rats. Diabetes 53:1807-12). […] All data are group mean±SEM (N=5-6 group). Statistical analysis by one-way ANOVA with Dunnett's post-hoc test.

[8] = tested on: AMP-activated protein kinase (AMPK); experiment: AMPK phosphorylation (Western blot) in cultured adult sensory neurons; assay type: cell-based, rat; details: 1.0 μM, 15-60 min
Description: Subsets of cultured adult sensory neurons derived from age-matched control rats or 3-5 month STZ-induced diabetic rats were treated with a 1.0 μM pirenzepine-HCl dosage. The first subset was processed immediately while the second, third and fourth subsets of the neurons from the control rats and the diabetic rats were processed after 15 min, after 30 min, and after 60 min respectively following treatment with pirenzepine. The cell cultures were lysed and then used to prepare Western blots which were then probed with antibodies against phosphorylated AMPK (P-AMPK), total AMPK (T-AMPK) and total ERK (T-ERK). […] Values are means±SEM, N=3/group. Statistical significance was analyzed using one-way ANOVA with Tukey's post-hoc test.

[9] = tested on: adult sensory neurons from normal rats; experiment: Neurite outgrowth of sensory neurons exposed to paclitaxel or oxaliplatin; assay type: cell-based, rat; details: 24 hours, pirenzepine 0.1, 1.0 or 10 μM
Description: Adult sensory neurons from normal rats were cultured for 24 hours in the presence of(A) paclitaxel (PX; 0.1 μM or 0.3 μM), or (B) oxaliplatin (OX; 3.0 μM). From time of plating some cultures were treated with 0.1, 1.0 or 10 μM pirenzepine (PZ). Levels of total neurite outgrowth were determined and presented as means±SEM, N=6-8/group. Significant differences were assessed in(A) by t-test, and in(B) by one-way ANOVA with Dunnett's post-hoc test.

[10] = tested on: cultured adult rat sensory neurons; assay type: cell-based; details: 1 μM; gp120 24 hours; P<0.05
Description: To further extend our investigation of the actions of muscarinic receptor antagonists on nerve growth, cultured adult rat sensory neurons were treated for 24 hours with recombinant gp120, an external coat protein of HIV that causes toxicity to sensory neurons in HIV neuropathy (FIG. 24). This toxicity leads to axon degeneration and neuronal cell death. Cultures were treated with 1 μM pirenzpeine and total neurite outgrowth determined. […] Values are means±SEM. n=6.

Row | Compound | selectivity to M1R relative to M2, M3, M4 and M5 receptors [1] [times] | coupling efficiency [2] | oxygen consumption rate (OCR) [2] | respiratory control ratio [2] | spare respiratory capacity ([2]; compared to controls) | depletion of paw skin IENF ([3]; 8 weeks) | paw thermal hypoalgesia ([3]; 8 weeks) | onset of MNCV slowing ([3]; after 4 weeks of exposure) | pirenzepine-induced neurite outgrowth under blockage of AMPK signaling [4] | transcriptional activity of PGC-1α [5] | tactile allodynia (paw 50% tactile response threshold) [6] | thermal hyperalgesia (paw thermal response latency) [6] | motor nerve conduction velocity (MNCV) slowing [7] | sensory nerve conduction velocity (SNCV) slowing [7] | P-AMPK level ([8]; cultures from normal (age-matched control) rats) | P-AMPK level ([8]; cultures from type 1 (STZ) diabetic rats) | reduced neurite outgrowth caused by oxaliplatin ([9]; oxaliplatin 3.0 μM) | reduced neurite outgrowth caused by paclitaxel ([9]; paclitaxel 0.1 or 0.3 μM) | protection from gp120-induced neurite degeneration [10]
1 | O=C(CCNS(=O)(=O)c1cccc2nsnc12)N1CCN(c2ccncc2)CC1 [VU0255035] | 75 | not dissimilar | increased | not dissimilar | significantly increased |  |  |  |  |  |  |  |  |  |  |  |  |  | 
2 | CN1CCN(CC(=O)N2c3ccccc3C(=O)Nc3cccnc32)CC1 [pirenzepine] |  |  |  |  |  | prevented | prevented | delayed onset | completely inhibited | enhanced | prevented | prevented | attenuated | attenuated | significantly activated | significantly activated | prevented | prevented | complete protection
